According to patent US12491185B2, “Inhibitors of mPTP” (NRG Therapeutics Ltd, priority 2023, dated 2025):

What was measured:
[1] = test system: mPTP; test: mPTP activity assay in isolated rat brain mitochondria; assay type: biochemical; conditions: fluorescence at 10 min timepoint
How it was run: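 Fresh brain mitochondria from female Sprague Dawley rats, digitonin-washed, in pH 7.4 mannitol/MOPS/KCl buffer with pyruvate, malate, ADP, oligomycin A and 2 μM Fluo5N. Preincubated with compounds 10 min at RT. Fluo5N fluorescence then read every 3 sec for 10 min on FLIPR Tetra.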

[2] = test system: mPTP; test: mPTP activity (Ca2+ retention) assay in isolated rat liver mitochondria; assay type: biochemical; conditions: examples tested by different contract research organisations, believed comparable
How it was run: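 pIC50 was taken from Fluo5N fluorescence at 10 min after a 75 μM CaCl2 bolus, scaled between DMSO (0%) and 5 μM cyclosporin A (100%). Compounds, ten half-log concentrations from 30 μM to 1 nM final, sat 10 min at RT with fresh female Sprague Dawley rat liver mitochondria energized by succinate plus rotenone.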

Compound	mPTP Rat brain pIC50 [1]	mPTP Rat liver pIC50 [2]
O=C(NCC1(Cc2ccc(F)cc2F)CCCC1)c1cncc(=O)[nH]1 [Example 152]	7.44	6.19
Cn1nc(C(=O)NCC2(Cc3ccc(F)c(F)c3F)CCC2)[nH]c1=O [Example 156]	7.24	6.28
Cn1nc(C(=O)N2CCC(c3ccccc3)CC2)[nH]c1=O [Reference Example 115, 2-methyl-5-(4-phenylpiperidine-1-carbonyl)-2,4-dihydro-3H-1,2,4-triazol-3-one]	<4.52	<4.57
Cn1nc(C(=O)NC[C@H](Cc2ccc(F)cc2Cl)C2CC2)[nH]c1=O [Example 241, (R)-N-(3-(2-chloro-4-fluorophenyl)-2-cyclopropylpropyl)-1-methyl-5-oxo-4,5-dihydro-1H-1,2,4-triazole-3-carboxamide]	7.73	6.81
O=C(NCC1(Cc2ccccc2)CCC1)c1nc(=O)[nH][nH]1 [Example 8, N-((1-benzylcyclobutyl)methyl)-5-oxo-2,5-dihydro-1H-1,2,4-triazole-3-carboxamide]	7.40	6.32
O=C(NCC1(Cc2ccccc2F)CCC1)c1cncc(O)n1 [Example 13, N-((1-(2-fluorobenzyl)cyclobutyl)methyl)-6-hydroxypyrazine-2-carboxamide]	7.74	5.33
CC(NC(=O)c1nn(C)c(=O)[nH]1)C(C)(C)Cc1ccccc1 (single isomer, unassigned) [Example 39B, N-(3,3-dimethyl-4-phenylbutan-2-yl)-1-methyl-5-oxo-4,5-dihydro-1H-1,2,4-triazole-3-carboxamide]	7.62	6.56
CC(NC(=O)c1nn(C)c(=O)[nH]1)C1(Cc2ccccc2)CCC1 (single isomer, unassigned) [Example 24A, N-(1-(1-benzylcyclobutyl)ethyl)-1-methyl-5-oxo-4,5-dihydro-1H-1,2,4-triazole-3-carboxamide]	7.83	6.75
O=C(NC[C@H](Cc1ccc(F)cc1F)C1CC1)c1cncc(=O)[nH]1 [Example 149]	7.07	6.32
Cn1nc(C(=O)NCC2(Cc3cccc(C#N)c3)CCC2)[nH]c1=O [Example 100, N-((1-(3-Cyanobenzyl)cyclobutyl)methyl)-1-methyl-5-oxo-4,5-dihydro-1H-1,2,4-triazole-3-carboxamide]	6.32	5.99
CCC(F)(CNC(=O)c1nccc(=O)[nH]1)Cc1ccc(F)cc1F (single isomer, unassigned) [Example 256, N-(2-(2,4-difluorobenzyl)-2-fluorobutyl)-6-oxo-1,6-dihydropyrimidine-2-carboxamide]	6.13	5.09
Cn1nc(C(=O)NC[C@H](Cc2ccc(F)cc2F)CC(F)(F)F)[nH]c1=O [Example 245, (R)-N-(2-(2,4-difluorobenzyl)-4,4,4-trifluorobutyl)-1-methyl-5-oxo-4,5-dihydro-1H-1,2,4-triazole-3-carboxamide]	7.44	6.13
O=C(NCC1(Cc2ccc(F)cc2F)CC12CC2)c1noc(=O)[nH]1 (single isomer, unassigned) [Example 234]	6.30	5.24
CC[C@H](CNC(=O)c1nccc(=O)[nH]1)Cc1ccc(F)cc1F [Example 191]	7.42	6.47
CC(NC(=O)c1nn(C)c(=O)[nH]1)C1(Cc2ccccc2)CCC1 (single isomer, unassigned) [Example 24B, N-(1-(1-benzylcyclobutyl)ethyl)-1-methyl-5-oxo-4,5-dihydro-1H-1,2,4-triazole-3-carboxamide]	5.49	<4.52
CC(CNC(=O)c1cc(O)no1)(Cc1ccc(F)cc1F)C1CC1 (single isomer, unassigned) [Example 269]	7.73	6.78
COC(CNC(=O)c1nn(C)c(=O)[nH]1)Cc1ccccc1 (centres unmarked) [Example 43, N-(2-methoxy-3-phenylpropyl)-1-methyl-5-oxo-4,5-dihydro-1H-1,2,4-triazole-3-carboxamide]	6.81	5.03
CC(CNC(=O)c1noc(=O)[nH]1)(Cc1ccc(F)cc1F)C1CC1 (single isomer, unassigned) [Example 273]	7.92	6.50
O=C(NCC1(Cc2cccc(F)c2F)CCC1)c1cncc(=O)[nH]1 [Example 17, N-((1-(2,3-difluorobenzyl)cyclobutyl)methyl)-6-oxo-1,6-dihydropyrazine-2-carboxamide]	6.96	6.05

Compound	mPTP Rat brain pIC50 [1]	mPTP Rat liver pIC50 [2]
Cn1nc(C(=O)NCC(C)(C)Cc2ccccc2Br)[nH]c1=O [Example 36, N-(3-(2-bromophenyl)-2,2-dimethylpropyl)-1-methyl-5-oxo-4,5-dihydro-1H-1,2,4-triazole-3-carboxamide]	7.05	5.28
CC(O)C(C)(CNC(=O)c1nn(C)c(=O)[nH]1)Cc1ccccc1 (centres unmarked) [Example 42, N-(2-benzyl-3-hydroxy-2-methylbutyl)-1-methyl-5-oxo-4,5-dihydro-1H-1,2,4-triazole-3-carboxamide]	6.26	5.27
CCC(NC(=O)c1nn(C)c(=O)[nH]1)C(C)(C)Cc1ccccc1 (centres unmarked) [Example 34, N-(2,2-dimethyl-1-phenylpentan-3-yl)-1-methyl-5-oxo-4,5-dihydro-1H-1,2,4-triazole-3-carboxamide]	7.32	5.82
Cn1nc(C(=O)NCC(Cc2cccc(F)c2)C2CC2)[nH]c1=O (centres unmarked) [Example 78, N-(2-Cyclopropyl-3-(3-fluorophenyl)propyl)-1-methyl-5-oxo-4,5-dihydro-1H-1,2,4-triazole-3-carboxamide]	7.28	6.59
Cn1nc(C(=O)NCC2(Cc3ccccc3F)CCC2)[nH]c1=O [Example 20, N-((1-(2-fluorobenzyl)cyclobutyl)methyl)-1-methyl-5-oxo-4,5-dihydro-1H-1,2,4-triazole-3-carboxamide]	7.55	6.44
Cn1nc(C(=O)NCC2(Cc3cc(F)c(F)cc3F)CCC2)[nH]c1=O [Example 157, 1-methyl-5-oxo-N-((1-(2,4,5-trifluorobenzyl)cyclobutyl)methyl)-4,5-dihydro-1H-1,2,4-triazole-3-carboxamide]	7.81	7.03
CC(C)[C@H](CNC(=O)c1nn(C)c(=O)[nH]1)Cc1ccccc1 (single isomer, unassigned) [Example 46B]	7.68	6.97
Cn1nc(C(=O)NCC(C)(Cc2ccc(F)cc2F)C2CC2)[nH]c1=O (single isomer, unassigned) [Example 240, N-(2-cyclopropyl-3-(2,4-difluorophenyl)-2-methylpropyl)-1-methyl-5-oxo-4,5-dihydro-1H-1,2,4-triazole-3-carboxamide]	7.61	6.91
CC(CNC(=O)c1noc(=O)[nH]1)(Cc1ccc(F)cc1F)C1CC1 (single isomer, unassigned) [Example 274]	8.5	6.85
O=C(NCC1(Cc2ccc(F)cc2F)CC12CC2)c1noc(=O)[nH]1 (single isomer, unassigned) [Example 233]	7.10	5.77
Cn1nc(C(=O)NCC2(Cc3ccc(F)c(F)c3)CCC2)[nH]c1=O [Example 142, N-((1-(3,4-difluorobenzyl)cyclobutyl)methyl)-1-methyl-5-oxo-4,5-dihydro-1H-1,2,4-triazole-3-carboxamide]	7.42	7.04
COC(c1ccccc1)C1(CNC(=O)c2nn(C)c(=O)[nH]2)CCC1 (centres unmarked) [Example 28, N-((1-(methoxy(phenyl)methyl)cyclobutyl)methyl)-1-methyl-5-oxo-4,5-dihydro-1H-1,2,4-triazole-3-carboxamide]	6.73	5.96
CC[C@@H](CNC(=O)c1nn(C)c(=O)[nH]1)Cc1ccccc1 (single isomer, unassigned) [Example 54a]	5.68	5.04
Cc1c(O)cncc1C(=O)NCC1(Cc2ccccc2)CCC1 [Example 4, N-((1-benzylcyclobutyl)methyl)-5-hydroxy-4-methylnicotinamide]	6.56	5.77
CN(CC1(Cc2ccccc2)CCC1)C(=O)c1cncc(O)n1 [Example 11, N-((1-benzylcyclobutyl)methyl)-6-hydroxy-N-methylpyrazine-2-carboxamide]	6.48	5.18
Cc1n[nH]c(C(=O)NCC2(Cc3ccccc3)CCC2)n1 [Example 64, N-((1-benzylcyclobutyl)methyl)-3-methyl-1H-1,2,4-triazole-5-carboxamide]	4.64	<4.52
CC(CNC(=O)c1ncc(F)c(=O)[nH]1)(Cc1ccc(F)cc1)C1CC1 (single isomer, unassigned) [Example 261, N-[2-cyclopropyl-3-(4-fluorophenyl)-2-methylpropyl]-5-fluoro-4-oxo-3H-pyrimidine-2-carboxamide]	8.29	7.13
O=C(NCC1(Cc2ccc(F)cc2F)CCC1)c1c[nH]c(=O)cn1 [Example 132]	7.31	6.08
